Measurements taken from article PMC3306999 (Journal of Toxicology, 2012).
Read-outs that look alike come from different tables or passages of the source.

What was measured:
[1] = system: cholinergic muscarinic receptors (MRs); assay type: in vivo, rat; details: for increase of cerebellar MRs density (Bmax): MeHg 1 mg/kg/day GD7-PND7; for effect on cerebellar dissociation constant (Kd) of [3H]QNB: rat, in vivo
[2] = assay type: in vivo, rat; details: MeHg 1 mg/kg/day; whole brain
MAO-B [3] = details: St. Lawrence River (Lake St. Pierre, Quebec) fish-eating population; ref Stamler et al. 2006 [68]; cited from earlier work
[4] = molecular target: cholinergic muscarinic receptors (MRs) in lymphocytes; assay: Spleen lymphocyte MR density and affinity after perinatal exposure; assay type: in vivo, rat
Method: (§1) The experimental regimen comprises 0.5 and 1 mg MeHg/kg (body weight) bw/day, administered to rat dams in the drinking water from gestational day (GD)7 to postnatal (PD)7, and/or PCB153 (20 mg/kg/day) dissolved in corn oil, administered to rats from GD10 to GD16.
(§2) The endpoints investigated in rats included total cholinergic MRs and MAO-B activity in cerebellum and total MRs in lymphocytes at weaning (i.e., PD21) both in dams and their offspring.
(§3) At the day of sacrifice, rat brains were rapidly dissected on ice to isolate cerebellum from dams and offspring and stored at −80°C until the analyses were performed. Spleens were also collected.
(i) Rat lymphocytes were obtained from the spleen of controls and differently treated animals. MR density and affinity in rat lymphocytes were determined as described in [52].

MAO-B [5] = molecular target: T1, MAO-B (Rattus norvegicus, UniProt P19643); assay: Cerebellar MAO-B activity (radiochemical, 14C-PEA) after perinatal exposure; assay type: in vivo; details: for decrease of cerebellar MAO-B activity: male pups PD21, maternal oral MeHg 1 mg/kg/day GD7-PND7 and/or PCB153 20 mg/kg/day GD10–GD16, vs control 19.26 ± 2.05 nmol/mg protein/h
T1 construct: from tissue; host or cells: rat cerebellum homogenate (dams and PD21 offspring)
Method: as §1, §2, §3
(ii) MAO-B activity was determined radiochemically as described by Young et al., 1986 [71] using 10 μM ^14C-PEA as the substrate. Specific MAO-B activity was determined in the presence of 100 μM pargyline hydrochloride. The reaction was started by addition of ^14C-PEA to 50 μL of tissue homogenate (0.2 mL final volume) and stopped by addition of 0.1 mL citric acid 2 M after a 15-min incubation at 37°C. Deaminated reaction products were extracted into 3 mL toluene-ethylacetate (1 : 1, v/v) and the radioactivity contained in a 1-mL aliquot of the organic phase was counted in scintillation counter. The enzyme activity was expressed as nmol/mg protein/h.

[6] = assay type: in vivo, rat
Method: as §1
Measurements of total Hg in cerebellum and blood also complemented the molecular studies to correlate neurochemical changes with the internal doses (see methods in [43, 52, 73]).

[7] = 21-day-old, same treatments, mean ± S.D.

T1 sequence (P19643 whole entry): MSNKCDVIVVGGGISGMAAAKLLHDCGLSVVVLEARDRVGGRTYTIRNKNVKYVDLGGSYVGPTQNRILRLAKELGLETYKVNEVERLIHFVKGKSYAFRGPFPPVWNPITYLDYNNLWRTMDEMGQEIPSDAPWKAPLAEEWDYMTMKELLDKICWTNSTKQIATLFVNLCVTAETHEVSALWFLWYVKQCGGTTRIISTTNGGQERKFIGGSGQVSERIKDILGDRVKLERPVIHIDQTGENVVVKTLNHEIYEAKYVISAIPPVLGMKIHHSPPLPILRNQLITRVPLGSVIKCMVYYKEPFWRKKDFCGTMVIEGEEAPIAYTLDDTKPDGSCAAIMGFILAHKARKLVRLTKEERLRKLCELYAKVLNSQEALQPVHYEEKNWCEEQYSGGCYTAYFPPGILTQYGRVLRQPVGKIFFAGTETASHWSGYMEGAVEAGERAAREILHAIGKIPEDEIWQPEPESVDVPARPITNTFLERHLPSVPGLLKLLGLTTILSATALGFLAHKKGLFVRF

[CH3][Hg][Cl] [MeHg, methylmercury]
increase of cerebellar MRs density (Bmax) ([1]; dams, PD21): 87%
effect on cerebellar MR density ([1]; lower MeHg dose 0.5 mg/kg/day alone or in combination with PCB153, mother and offspring): did not cause any change
increase of cerebellar MRs density (Bmax) ([1]; male pups PD21): 27%
effect on cerebellar dissociation constant (Kd) of [3H]QNB [1]: did not affect
brain Hg concentration, mother versus offspring [2]: about five-fold higher
blood-Hg concentrations associated with MeHg-induced reduction in MAO-B activity (MAO-B [3]): above 3.4 μg/L
effect on lymphocyte Kd values ([4]; MeHg 1 mg/kg/day, dams and offspring): absence of any change
increase of lymphocyte MR density (Bmax) ([4]; dams, MeHg 1 mg/kg/day GD7-PND7, vs control 33 ± 4 fmol/million cells): 139%
increase of lymphocyte MR density (Bmax) ([4]; female offspring 21 days old, MeHg 1 mg/kg/day, vs control 37 ± 4 fmol/million cells): 73%
effect on lymphocyte Kd values ([4]; lower MeHg dose 0.5 mg/kg/day): devoid of any effect
effect on lymphocyte MR density ([4]; lower MeHg dose 0.5 mg/kg/day, all groups, day 21 postpartum): did not significantly differ
increase of lymphocyte MR density (Bmax) ([4]; male offspring 21 days old, MeHg 1 mg/kg/day, vs control 41 ± 8 fmol/million cells): 49%
effect on MAO-B activity (MAO-B [5]; lower MeHg dose 0.5 mg/kg/day GD7-PND7, male and female offspring): no effects
decrease of cerebellar MAO-B activity (MAO-B [5]): 35%
Blood Hg, Dams ([6]; 1 mg MeHg/kg bw/day GD7-PD7 and/or 20 mg PCB153/kg bw/day GD10–GD16, mean ± S.D.): 11.33 ± 2.26 n = 4 μg/ml
Blood Hg, Offspring Female [6, 7]: 1.31 ± 0.40 n = 4 μg/ml
Blood Hg, Offspring Male [6, 7]: 1.35 ± 0.40 n = 4 μg/ml
Brain Hg, Offspring Female [6, 7]: 1.52 ± 0.33 n = 4 μg/g
Brain Hg, Offspring Male [6, 7]: 1.67 ± 0.43 n = 4 μg/g
Hg in rat blood at PD21 ([6]; perinatal 1 mg MeHg/kg/day): 1300 ppb
cerebral Hg levels in weaning rats ([6]; perinatal 1 mg MeHg/kg/day): 1.5–2.8 ppm
blood Hg levels in weaning rats ([6]; perinatal 1 mg MeHg/kg/day, both pup genders): 1.3 ± 0.4 µg/mL
Hg levels in pup blood ([6]; pups, both genders, MeHg 1 mg/kg/day): 1.35 ± 0.4 mg/L
Brain Hg, Dams ([6]; same treatments): 7.53 µg/g

Clc1cc(Cl)c(-c2cc(Cl)c(Cl)cc2Cl)cc1Cl [PCB153, 2,2′,4,4′,5,5′-hexachlorobiphenyl]
effect on cerebellar MRs density ([1]; adult and offspring PD21, PCB153 20 mg/kg/day GD10–GD16 alone or with MeHg 1 mg/kg/day): did not modify
effect on cerebellar dissociation constant (Kd) of [3H]QNB [1]: did not affect
decrease of cerebellar MAO-B activity (MAO-B [5]): 45%
effect of PCB153 coexposure on brain Hg concentrations ([6]; MeHg 1 mg/kg/day + PCB153): not affected
